Assay results as given in US20130190314A1, “DERIVATIVES OF 6-CYCLOAMINO-2-THIENYL-3-(PYRIDIN-4-YL)IMIDAZO[1,2-b]-PYRIDAZINE AND 6-CYCLOAMINO-2-FURANYL-3-(PYRIDIN-4-YL)IMIDAZO[1,2-b]-PYRIDAZINE, PREPARATION AND THERAPEUTIC USE THEREOF” (priority 2008, published 2013).

Assays:
[1] = biological target: T1, casein kinase 1 delta (human CK1 delta PV3665) (Homo sapiens, UniProt P48730); assay: FRET fluorescence test (Z'Lyte kinase assay kit), phosphorylation of peptide substrate SER/THR 11; assay type: biochemical; details: peptide substrate 2 μM, ATP at 4 times the KM
T1 construct: purchased Invitrogen Corporation PV3665
Text: The capacity of the compounds of the invention to inhibit the phosphorylation of casein by casein kinase 1 epsilon and casein kinase 1 delta can be evaluated using a FRET (Fluorescence Resonance Energy Transfer) fluorescence test by means of the “Z′Lyte™ kinase assay kit” (reference PV3670; Invitrogen Corporation™) according to the supplier's instructions.
The casein kinases 1 used are obtained from Invitrogen Corporation (human CK1 epsilon PV3500 and human CK1 delta PV3665).
A peptide substrate, labelled at both ends with a fluorophore donor group (coumarin) and a fluorophore acceptor group (fluorescein) constituting a FRET system is phosphorylated in the presence of ATP by casein kinase 1 epsilon or delta in the presence of increasing concentrations of compounds of the invention.
The mixture is treated with a site-specific protease that specifically cleaves the peptide substrate so as to form two fluorescent fragments having a large fluorescence emission ratio.
The fluorescence observed is thus related to the capacity of the products of the invention to inhibit the phosphorylation of the peptide substrate by casein kinase 1 epsilon or casein kinase 1 delta. […]
The emitted fluorescence is measured at wavelengths of 445 and 520 nm (excitation at 400 nm).

T1 sequence (P48730 whole entry): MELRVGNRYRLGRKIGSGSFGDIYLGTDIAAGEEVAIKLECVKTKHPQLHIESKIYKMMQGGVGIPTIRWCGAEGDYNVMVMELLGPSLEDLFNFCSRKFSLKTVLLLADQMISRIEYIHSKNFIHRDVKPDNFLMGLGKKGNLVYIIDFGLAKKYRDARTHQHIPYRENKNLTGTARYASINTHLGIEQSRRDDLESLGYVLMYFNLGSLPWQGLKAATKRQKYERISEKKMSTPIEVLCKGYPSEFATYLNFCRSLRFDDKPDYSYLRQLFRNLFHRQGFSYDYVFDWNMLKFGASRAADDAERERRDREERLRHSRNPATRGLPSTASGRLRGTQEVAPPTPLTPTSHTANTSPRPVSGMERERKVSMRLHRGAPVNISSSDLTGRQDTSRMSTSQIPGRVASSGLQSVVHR

melting point [°C]	IC50 [1] [µM]	SMILES
216 to 218	0.093 to 0.163	OCCN1CCN(c2ccc3nc(-c4ccc(Cl)s4)c(-c4ccncc4)n3n2)CC1 [Compound 14, 2-{4-[2-(5-chlorothien-2-yl)-3-(pyridin-4-yl)imidazo[1,2-b]pyridazin-6-yl](piperazin-1-yl)}ethanol]
–	0.063 to 0.076	Cc1ccc(-c2nc3ccc(N4CCNCC4)nn3c2-c2ccncc2)s1 [Compound 10, 2-(5-methylthien-2-yl)-6-(piperazin-1-yl)-3-(pyridin-4-yl)imidazo[1,2-b]pyridazine]
